We go through six molecules from patent US6342537B1, “Gel for treatment of skin diseases and for disinfection of the skin” (priority 1994, dated 2002).

Series [1] relates to herpes labialis eruptions. The following applies: in vivo. From the text:
23.4—Application of Gelled Alcohol
In this example some of the gelled compositions contained 1.6% by weight HPC and others contained 1.6% by weight EHEC.

In series [2] the test system is herpes labialis eruptions. Put plainly: Herpes labialis eruptions, prolonged contact with impregnated cotton (Example 23.2). Format: in vivo, human. The following applies: for symptom relief: intensive depot treatment.
For series [3], the system named is herpes labialis eruptions. The following applies: glass container; for symptom relief: two early phases.
In series [4] the test system is herpes simplex virus (HSV) type 1. The series is described as follows: Inactivation of herpes simplex virus in infected MRC-5 cells by alcohols (Example 25). For HSV - CPE after 44 hours with the detecting cell-layer: key: 0: no CPE; 1: a few; 2: several; 3: all cells infected with HSV. The following applies: for HSV - CPE after 44 hours with the detecting cell-layer: duplicate wells; for inactivation of herpes simplex virus (in words): HSV type 1 infected MRC-5 cells. The class given is cell-based. On the procedure: Ethanol is an accepted disinfectant for viruses with an envelope. The purpose of this study was to measure the inactivating effect of “short-chained alcohols” on virus-infected cells.
Four 96 well plates with confluent MRC-5 cell were infected with herpes simplex virus (HSV) type 1. After appearance of 50% cytopathic effect (CPE), the culture medium was removed, and rows of 12 wells were treated with 25 μl/well of the alcohols or buffer after the following scheme: The first row with undiluted, and the following with 96%, 90%, 80%, 70%, 60% and 50% alcohol, respectively—all dilutions performed in buffer (PBS). To the last row was added buffer. After 2, 4, 8, 16 and 32 min, respectively, two wells in each row were emptied and the cells overlaid with PBS. The plate was then frozen at —80° C. Afterwards the wells were seeded with a detection layer of MRC-5 cells and the plates were placed at 37° C. for 44 hours. Virus surviving the treatment with alcohol was detected by the appearance of CPE, characteristic for HSV in the detection monolayer.

Series [5] deals with recurrent herpes genitalia, herpes febrilis (labialis). The settings on record: nonimmunocompromised patients; cited from earlier work.
Setting [6] is: alcohol undiluted, 2 min with alcohol.

“And” between values parts separate entries of the source, which are not always exact repeats. Identical values can stand only once. Like-named read-outs stand apart in the source and are kept apart here.

`CCO` [Ethanol 90%]: the “pain reaction on application in the ulceration phase” value (shortened to “pain reaction on application”) in series [1] is given as “less pain or shorter duration”.

Consider `CCO` [Ethanol 95%], for which, in series [2], the “symptom relief” value is “palliative effect on symptom relief”. In addition, in series [1], the “pain reaction on application” value is “slight pain of short duration”. For the same molecule, in series [3], the “eruption abortive effect” value is on record as “clearly observed”, the “eruption shortening effect” value is reported as “likewise observed” and the “symptom relief” value is reported as “very strong symptom relief”.

As for `CCO` [Ethanol 99%], the “abortive effect” value in series [2] (early phase and vesicular phase) is given as “some abortive effect”. Besides, the “symptom relief” value in series [2] is listed as “palliative effect on symptom relief”. Moreover, the “pain reaction on application” value in series [1] was “slight pain of short duration”. In series [3], the “eruption abortive effect” value is recorded as “clearly observed”, the “eruption shortening effect” value is given as “likewise observed” and the “symptom relief” value is listed as “very strong symptom relief”.

In the case of `CCCO` [Propanol], the “HSV - CPE after 44 hours with the detecting cell-layer” value (from here on “HSV - CPE after 44 hours”) was 2 in series [4] (50% alcohol in PBS, 2 min); 3 in series [4] (50% alcohol in PBS, 4 min); 3 and 2 in series [4] (50% alcohol in PBS, 8 min); 3 and 2 in series [4] (50% alcohol in PBS, 16 min); 1 in series [4] (50% alcohol in PBS, 32 min); 1 and 2 in series [4] (60% alcohol in PBS, 2 min). In addition, the “HSV - CPE after 44 hours” value in series [4] (60% alcohol in PBS, 4 min) is 2 and 1; in series [4] (60% alcohol in PBS, 8 min) it was 1 and 0; in series [4] (60% alcohol in PBS, 16 min) it was 1 and 0; in series [4] (60% alcohol in PBS, 32 min), 0; in series [4] (70% alcohol in PBS, 2 min), 1 and 2; in series [4] (70% alcohol in PBS, 4 min), 1 and 0. Besides, the “HSV - CPE after 44 hours” value is 1 and 0 in series [4] (70% alcohol in PBS, 8 min); 0 in series [4] (70% alcohol in PBS, 16 min); 0 in series [4] (70% alcohol in PBS, 32 min); 0 in series [4] (80% alcohol in PBS, 2 min); 0 in series [4] (80% alcohol in PBS, 4 min); 0 and 1 in series [4] (80% alcohol in PBS, 8 min). The “HSV - CPE after 44 hours” value is 0 in series [4] (80% alcohol in PBS, 16 min); 0 in series [4] (80% alcohol in PBS, 32 min); 0 in series [4] (90% alcohol in PBS, 2 min); 0 in series [4] (90% alcohol in PBS, 4 min); 0 in series [4] (90% alcohol in PBS, 8 min); 0 in series [4] (90% alcohol in PBS, 16 min). Also, the “HSV - CPE after 44 hours” value in series [4] (90% alcohol in PBS, 32 min) stood at 0; in series [4] (96% alcohol in PBS, 2 min) it was 0; in series [4] (96% alcohol in PBS, 4 min), 0; in series [4] (96% alcohol in PBS, 8 min), 0; in series [4] (96% alcohol in PBS, 16 min) it was 0; in series [4] (96% alcohol in PBS, 32 min), 0. Besides, the “HSV - CPE after 44 hours” value in series [4] (setting [6]) worked out at 0; in series [4] (alcohol undiluted, 4 min), 0; in series [4] (alcohol undiluted, 8 min) it was 0; in series [4] (alcohol undiluted, 16 min), 0; in series [4] (alcohol undiluted, 32 min), 0. Further, in series [4], the “inactivation of herpes simplex virus (in words)” value is reported as “able to inactivate herpes simplex virus even intracellular virus”.

On to `Nc1nc2c(ncn2COCCO)c(=O)[nH]1` [Topical acyclovir, acyclovir], for which the “effectiveness in recurrent herpes genitalia / labialis” value in series [5] is listed as “not effective”.

As to Butanol, the “HSV - CPE after 44 hours” value in series [4] (50% alcohol in PBS, 2 min) is 0 and 2; in series [4] (50% alcohol in PBS, 4 min), 2; in series [4] (50% alcohol in PBS, 8 min), 2; in series [4] (50% alcohol in PBS, 16 min) it was 0; in series [4] (50% alcohol in PBS, 32 min), 1 and 0; in series [4] (60% alcohol in PBS, 2 min), 0 and 2. Besides, the “HSV - CPE after 44 hours” value in series [4] (60% alcohol in PBS, 4 min) is 2; in series [4] (60% alcohol in PBS, 8 min) it was 2 and 0; in series [4] (60% alcohol in PBS, 16 min) it was 0; in series [4] (60% alcohol in PBS, 32 min), 1 and 0; in series [4] (70% alcohol in PBS, 2 min), 0; in series [4] (70% alcohol in PBS, 4 min), 0 and 1. The “HSV - CPE after 44 hours” value is 1 and 0 in series [4] (70% alcohol in PBS, 8 min); 0 and 1 in series [4] (70% alcohol in PBS, 16 min); 1 in series [4] (70% alcohol in PBS, 32 min); 0 in series [4] (80% alcohol in PBS, 2 min); 0 and 1 in series [4] (80% alcohol in PBS, 4 min); 1 and 0 in series [4] (80% alcohol in PBS, 8 min). Also, the “HSV - CPE after 44 hours” value in series [4] (80% alcohol in PBS, 16 min) is 0; in series [4] (80% alcohol in PBS, 32 min), 1 and 0; in series [4] (90% alcohol in PBS, 2 min), 0; in series [4] (90% alcohol in PBS, 4 min), 0 and 1; in series [4] (90% alcohol in PBS, 8 min) it was 0; in series [4] (90% alcohol in PBS, 16 min), 1 and 0. The “HSV - CPE after 44 hours” value is 0 and 3 in series [4] (90% alcohol in PBS, 32 min); 0 in series [4] (96% alcohol in PBS, 2 min); 0 in series [4] (96% alcohol in PBS, 4 min); 0 and 2 in series [4] (96% alcohol in PBS, 8 min); 0 in series [4] (96% alcohol in PBS, 16 min); 0 in series [4] (96% alcohol in PBS, 32 min). The “HSV - CPE after 44 hours” value is 0 in series [4] (setting [6]); 0 in series [4] (alcohol undiluted, 4 min); 0 in series [4] (alcohol undiluted, 8 min); 0 in series [4] (alcohol undiluted, 16 min); 0 in series [4] (alcohol undiluted, 32 min). Also, in series [4], the “inactivation of herpes simplex virus (in words)” value is “able to inactivate herpes simplex virus even intracellular virus”.
